Tested on: P. acnes Group 1, 2 and 3 isolates
Test: Growth of P. acnes isolates on semi-selective Brain Heart Infusion agar containing antibiotics
Type: cell-based, Propionibacterium acnes
Procedure: Brain Heart Infusion Agar (Oxoid Australia Ltd) was prepared containing 0.5% Tween 80 and adjusted to a pH of 6.0 using hydrochloric acid prior to autoclaving. […] Both antibiotics were prepared freshly immediately prior to use, and the agar plates were incubated at 37° C. for 24 hrs to ensure sterility then stored at 4° C. and used within 3 weeks of preparation.
Inclusion of gentamicin as a selective agent and Tween 80 as a growth stimulant for P. acnes was previously discussed by Kishishita (1980).

Substance: gentamicin
- growth of some strains of P. acnes Groups 2 and 3 (at 6 μg/mL furazolidone and 4 μg/mL gentamicin in the semi-selective medium): noticeable growth inhibition
- maximal concentration that allowed reasonable growth (semi-selective agar, after 7 days of anaerobic incubation): 4 µg/mL
